Data from patent US9365540B2, “Benzimidazole derivatives as MCH receptor antagonists” (Takeda Pharmaceutical Company Limited, priority 2012, dated 2016).

Columns and labels:
[1] = system: male diet-induced obese F344/Jcl rats; assay: Anorectic effect in male diet-induced obese F344/Jcl rats; type: in vivo, rat; settings: Rattus norvegicus, po, 48 h, 5 mg/mL suspension at 2 mL/kg, two administrations, food intake for 2 days vs control group, read-out: Food intake suppression rate (%)
Procedure: Evaluation of Anorectic Effect Using Male Diet-Induced Obese F344/Jcl Rats
Male diet-induced obese F344/Jcl rats (44-50 weeks old) fed with a high-fat diet (D12451: Research Diets) from 5 weeks old were used. From before the start of experiment, the rats were singly housed, given a powder high-fat diet (D12451M: Research Diets), and habituated to oral administration with tap water. The food intake from the evening of the day before the start of experiment to the next morning was measured, and the rats were grouped based on both the food intake and the body weight of the previous day. In the evening of the day of the start of experiment and the next day, 0.5% methylcellulose solution was orally administered to the control group, and 0.5% methylcellulose suspension (5 mg/mL) of the test compound was orally administered to the compound administration group at 2 mL/kg (6 per group for both control group and compound administration group). The food intake for 2 days from the initial administration was measured. The food intake inhibition rate of each compound administration group to the control group was calculated.

human MCHR1 = target: T1, human MCHR1 (Homo sapiens, UniProt Q99705); assay: MCH receptor 1 antagonistic activity, Ca2+ mobilization assay; type: cell-based; settings: CHO, test compound 0.1 μM; human MCHR1-expressing CHO cells (clone #4); ligand MCH(4-19) 2 nM; read-out: Inhibitory rate % (0.1 μM)
T1 construct: expressed in transfected cells; host or cells: CHO dhfr- cells, clone #4
T1 sequence (Q99705 whole entry): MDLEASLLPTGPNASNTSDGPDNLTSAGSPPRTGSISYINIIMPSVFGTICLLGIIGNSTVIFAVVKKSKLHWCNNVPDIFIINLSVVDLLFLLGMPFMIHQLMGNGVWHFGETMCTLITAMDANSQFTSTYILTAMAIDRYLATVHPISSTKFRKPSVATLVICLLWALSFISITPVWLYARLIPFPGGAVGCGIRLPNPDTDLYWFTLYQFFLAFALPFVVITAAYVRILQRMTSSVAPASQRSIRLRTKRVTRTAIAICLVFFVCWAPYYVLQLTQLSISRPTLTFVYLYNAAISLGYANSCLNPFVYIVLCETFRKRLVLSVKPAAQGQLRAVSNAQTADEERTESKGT
Procedure, shortened: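 CHO dhfr− cells stably expressing human MCHR1 (clone #4) were used in a fluorometric Ca2+ mobilization assay. Test compounds were run at 0.1 μM, with antagonism expressed as percent inhibition.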

HepG2 cells = assay: PLsis (phospholipidosis) inducing potential, NBD-PE uptake; type: cell-based; settings: 24 hr exposure, relative value to 10 μM Amiodarone, maximum value per unit concentration
Procedure: Evaluation of PLsis Inducing Potential
DMEM medium, L-glutamine, penicillin-streptomycin, pyruvic acid, and N-(7-nitrobenz-2-oxa-1,3-diazol-4-yl)-1,2-hexadecanoyl-sn-glycero-3-phosphoethanolamine triethylammonium salt (NBD-PE) were purchased from Invitrogen Corporation. As bovine serum albumin (BSA), a product of Thermo Trace Ltd. (Melbourne, Australia) was used, and as Amiodarone, a product of ICN (Costa Mesa, Calif.) was used. A test compound was used in the form of a 10 mM DMSO solution.
FBS was added at a final concentration of 5 vol % to DMEM medium supplemented with L-glutamine, pyruvic acid and penicillin-streptomycin and subjected to the experiment. Culture was performed using 5% carbon dioxide gas-95% air as a gas phase in a CO2 incubator at 37° C. HepG2 cells were suspended in a culture medium at 50×10^4 cells/mL, plated in a 96 well plate at 50 μL/well and precultured for 24 hr. After preculture, the culture medium was removed, a culture medium containing 60 μM NBD-PE was added at 50 μL/well, and a culture medium containing 0.6 μM or 20 μM test compounds were each added at 50 μL/well to HepG2 cells, and the cells were cultured for 24 hr. As a positive control, Amiodarone was used at a final concentration of 10 μM.
After exposure to the test compound for 24 hr, the fluorescence intensity (Ex. 485 nm, Em. 538 nm) of NBD-PE uptaken by the cells was measured by a fluorometer. The measurement value with addition of 0 μM test compound solution was subtracted as a blank, a relative value to the measurement 5 value with addition of 10 μM Amiodarone was calculated, and the maximum value per unit concentration of the test compound was obtained as a phospholipidosis (PLsis) inducing potential.

[2] = target: T2, human MCH receptor 1 (MCHR1) (Homo sapiens, UniProt Q99705); assay: human MCH receptor 1 (MCHR1) competitive binding assay with [125I]-MCH(4-19); settings: test compound 0.1 μM, human MCHR1-expressing CHO cell membrane fraction, read-out: Binding inhibition rate % (0.1 μM)
T2 construct: expressed in transfected cells; host or cells: CHO cell clone 57 (membrane fraction)
T2 sequence (Q99705 whole entry): as above
Procedure, shortened: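 Percent binding inhibition by 0.1 μM test compound, corrected for nonspecific binding defined with unlabeled MCH(1-19), is read by scintillation after filtration onto PEI-treated GF/C filters. The reaction runs 1 hr at room temperature with [125I]-MCH(4-19) and human MCHR1-CHO cell membranes in Tris-HCl pH 7.5 buffer containing EDTA and protease inhibitors.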

Structure (SMILES)	inhibition in vivo at 5000 µg/mL, 10 mg/kg [1]	inhibition at 0.1 µM (human MCHR1)	PLsis inducing potential (HepG2 cells)	inhibition at 0.1 µM [2]
Cc1c(C2CC2)nc2ccc(-n3ccc(OCc4ccc(F)cc4)cc3=O)cn12 [Example 1, 1-(2-Cyclopropyl-3-methylimidazo[1,2-a]pyridin-6-yl)-4-((4-fluorobenzyl)oxy)pyridin-2(1H)-one]	19.5%	98%	2.5	91%
Cc1c(C2CC2)nc2ccc(-n3ccc(OCc4ccc(Cl)cc4)cc3=O)cn12 [Example 3, 4-((4-Chlorobenzyl)oxy)-1-(2-cyclopropyl-3-methylimidazo[1,2-a]pyridin-6-yl)pyridin-2(1H)-one]	29.6%	99%	2.4	88%
Cc1c(C2CC2)nc2ccc(-n3ccc(OCc4ccccc4)cc3=O)cn12 [Example 11, 4-(Benzyloxy)-1-(2-cyclopropyl-3-methylimidazo[1,2-a]pyridin-6-yl)pyridin-2(1H)-one]	21.8%	101%	2.0	81%
Cn1c(C2CC2)nc2ccc(-n3ccc(OCc4ccc(Cl)cn4)cc3=O)cc21 [Example 112, 4-((5-Chloropyridin-2-yl)methoxy)-1-(2-cyclopropyl-1-methyl-1H-benzimidazol-6-yl)pyridin-2(1H)-one]	25.5%	48%	1.6	70%
Cn1c(C2CC2)nc2ccc(-n3ccc(OCc4ccc(Cl)s4)cc3=O)cc21 [Example 121, 4-((5-Chloro-2-thienyl)methoxy)-1-(2-cyclopropyl-1-methyl-1H-benzimidazol-6-yl)pyridin-2(1H)-one]	36.5%	96%	1.7	95%
